Laboratory results: article PMC11989005, “The Elongation Factor 1 Alpha Promoter Drives the Functional Expression of Kir2A in Plutella xylostella Cells” (International Journal of Molecular Sciences, 2025)
Where two headings read alike, the source gives them in different places.

Molecular target: T1, PxKir2A (Plutella xylostella, UniProt A0A7L7TNR0)
T1 construct: gene kir2; full-length ORF in pEF1alpha-PxKir2A, no tag stated; transiently expressed in P. xylostella Px4-2 cells, EGFP co-transfected from a separate plasmid
T1 sequence (A0A7L7TNR0 entry or part of it): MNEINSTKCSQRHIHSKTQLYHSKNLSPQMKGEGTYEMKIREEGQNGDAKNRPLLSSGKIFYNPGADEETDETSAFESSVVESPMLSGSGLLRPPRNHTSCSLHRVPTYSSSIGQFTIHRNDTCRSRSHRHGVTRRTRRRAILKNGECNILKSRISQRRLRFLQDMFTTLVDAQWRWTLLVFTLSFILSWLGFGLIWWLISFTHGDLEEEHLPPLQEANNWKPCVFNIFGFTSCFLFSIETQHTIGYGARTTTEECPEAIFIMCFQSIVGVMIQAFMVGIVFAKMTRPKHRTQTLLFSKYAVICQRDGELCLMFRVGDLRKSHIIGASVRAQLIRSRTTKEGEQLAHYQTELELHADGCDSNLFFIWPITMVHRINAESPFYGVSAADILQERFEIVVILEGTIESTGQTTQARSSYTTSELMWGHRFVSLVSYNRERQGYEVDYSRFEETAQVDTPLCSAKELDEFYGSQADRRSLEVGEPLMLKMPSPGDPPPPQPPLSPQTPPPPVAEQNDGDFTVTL
Test: whole-cell patch clamp, inhibition of inward K+ current
Format: cell-based

Row | SMILES | IC50 (bath 50 mM KCl, pH 6.4, 25 °C, holding -20 mV, steps -120 to +20 mV, DMSO <0.05%, read-out: IC50) | IC50
1 | CCC(=O)N1c2ccc(S(=O)(=O)Nc3cccc(OC)c3)cc2CC1C (centres unmarked) [VU625] | 151 nM | –
2 | O=[N+]([O-])c1ccc(CN2CCOCCOCCN(Cc3ccc([N+](=O)[O-])cc3)CCOCC2)cc1 [VU590] | – | 634 nM
